{"source": "paper PMC12645137", "about": "(Current Neuropharmacology, 2025)", "key": {"[1]": {"tested_on": "scopolamine-induced amnesic mice", "assay": "Elevated Plus Maze (EPM) test in scopolamine-induced amnesic animals", "type": "in vivo, albino mice", "details": "scopolamine 1 mg/kg amnesic mice, i.p., AN-1 10 mg/kg, progesterone 10 mg/kg, galantamine 8 mg/kg; for retention transfer latency (RTL): 24 h after training, disease group 67 sec; for initial transfer latency (ITL): disease group 73 sec", "description": "(§1) The mice were divided into the following five groups, and each group had six animals. The standard drug and test samples were carefully administered to the mice via the intraperitoneal route.\n(§2) Group IV (Progesterone treated group) = Animals treated with 10 mg/kg progesterone and scopolamine 1 mg/kg.\n(§3) Group V (Test compound group) = Animals received 10 mg/kg progesterone derivative (AN-1) and 1 mg/kg scopolamine.\nThe EPM behavioral test was performed to assess the learning abilities and long-term spatial memory of the experimental animals. The EPM apparatus has the appearance of a plus sign which was 50 cm elevated from the ground. The apparatus has two open arms (50 cm long and 10 cm wide), and two closed arms having dimensions of 20, 50, and 10 cm in height, length, and width, respectively. The open and closed arms were joined with a 10 × 10 central square.\nAfter 30 minutes of the intraperitoneal drug administration on the seventh day of treatment, mice of each group were placed over the open arm end of the EPM apparatus in such a way that their faces were away from the midpoint of the apparatus. Transfer latency (TL) is the time a mouse takes to enter the closed arm entirely with all its legs from the open arm of the apparatus. The time of initial transfer latency (ITL) was observed, and then the animals were allowed freely for 1.5 minutes to search the EPM apparatus.\nAfter twenty-four hours of the training period, test trials were conducted to determine the retention of tasks that were learnt during training. Retention transfer latency (RTL) was measured by placing the experimental mice at the open end of the apparatus, ensuring that they faced away from its midpoint. The mouse was allowed to enter the closed arm entirely with all its legs. A decline in TL compared to ITL indicated an improvement in memory."}, "[2]": {"tested_on": "scopolamine-induced amnesic mice", "assay": "Y-Maze test in scopolamine-induced amnesic animals", "type": "in vivo, albino mice", "details": "scopolamine 1 mg/kg amnesic mice; i.p.; AN-1 10 mg/kg, progesterone 10 mg/kg, galantamine 8 mg/kg; disease group 22.27%", "description": "as §1, §2, §3\nTo determine the effect of synthesized compounds on short-term learning and memory of experimental mice, a Y-Maze test was used. The Y-Maze apparatus consists of three arms that are fixed at 120° angle from each other and have 30 cm length, 20 cm height, and 8 cm width dimensions. After 30 minutes of giving test compounds intraperitoneally, the mouse was positioned at the arm end in such a way that it faced away from the midpoint of the apparatus and was permitted to search the apparatus for five minutes freely. The arm entry sequence and number by each mouse were recorded for 5 minutes using a digital camera. Alternation is defined as the successive entry into 3 dissimilar arms by a mouse (i.e., CBA, BCA, ABC). When the back paws of a mouse were found inside an arm wholly, the arm entry was considered completed. Seventy percent v/v ethanol was used for cleaning the apparatus and to avoid smell cues. The spontaneous alternation performance (SAP) percentage was calculated using the following formula [37]:\n% alternation = [(alternations number) / (total arm entries number – 2)] × 100"}, "[3]": {"tested_on": "scopolamine-induced amnesic mice", "assay": "Open field test (OFT) in scopolamine-induced amnesic animals", "type": "in vivo, albino mice", "details": "i.p., AN-1 10 mg/kg, progesterone 10 mg/kg, galantamine 8 mg/kg; for number of lines crossed: 5 min, disease group 26.33; for number of lines crossed / time spent in the central area: scopolamine 1 mg/kg amnesic mice; for time spent in the central area: 30 min exploration, disease group 4.66; for time spent in the peripheral area: versus scopolamine/disease group", "description": "as §1, §2, §3\nOpen field behavioral test was carried out for the assessment of locomotor activities like the number of line crossing. The apparatus was made from plywood having 81×81×28.5 cm dimensions. Sixteen squares (20×20 cm) were made on the base of the apparatus by drawing four horizontal and four vertical lines. […] Furthermore, exploration time spent by mice in central and peripheral areas of the apparatus was also recorded by allowing the mice for 30 minutes to explore the apparatus."}, "[4]": {"molecular_target": "T1, BChE (source equine serum) (Equus caballus, UniProt P81908)", "T1 construct": "from tissue; host or cells: equine serum", "T1 sequence (P81908 whole entry)": "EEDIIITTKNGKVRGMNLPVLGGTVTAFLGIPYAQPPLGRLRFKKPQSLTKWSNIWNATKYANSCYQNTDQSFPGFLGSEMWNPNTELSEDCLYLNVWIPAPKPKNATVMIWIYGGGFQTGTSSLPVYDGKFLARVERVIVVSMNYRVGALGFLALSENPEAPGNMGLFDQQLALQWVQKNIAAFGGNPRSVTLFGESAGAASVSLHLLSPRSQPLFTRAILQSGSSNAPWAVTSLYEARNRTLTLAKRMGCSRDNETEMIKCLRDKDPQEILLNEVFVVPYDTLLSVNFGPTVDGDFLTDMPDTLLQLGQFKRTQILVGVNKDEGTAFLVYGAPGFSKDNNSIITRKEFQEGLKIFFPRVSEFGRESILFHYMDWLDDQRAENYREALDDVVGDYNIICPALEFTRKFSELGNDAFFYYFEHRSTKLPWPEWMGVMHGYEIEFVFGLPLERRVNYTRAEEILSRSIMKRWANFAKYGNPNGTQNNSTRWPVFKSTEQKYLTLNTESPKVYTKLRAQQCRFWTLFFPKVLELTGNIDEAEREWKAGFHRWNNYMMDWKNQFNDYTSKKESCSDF", "assay": "biochemical", "details": "read-out: % BChE Inhibition", "description": "The cholinesterase inhibitory potentials of our synthesized compounds were evaluated against cholinesterase enzymes (AChE/BChE). The AChE (source Electric eel) and BChE (source equine serum) were used in the study following previously published Ellman's assay. The assay basic principle involves the hydrolytic breakdown of acetylthiocholine iodide (ATChI) by AChE and butyryl thiocholine iodide (BTChI) by BChE enzymes, leading to the formation of an intermediate compound which is subsequently complexed with 5,5-dithio bis nitrobenzoic acid (DTNB) to form a UV-detectable compound. The yellowish color product indicates the hydrolysis of ATChI and BTChI substrates by respective enzymes, which were analyzed at 412 nm using a UV-visible spectrophotometer. […] A test sample of 1000 µl was taken in a cuvette, to which enzyme solution (50 µl) and DTNB reagent of 50 µL were added. The AChE (0.03 U/ml) and BChE (0.01 U/ml) solutions were prepared in 0.1 M phosphate buffer having pH 8.0. The ATChI and BTChI substrate solutions (0.0005 M) and 0.0002273 M solution of DTNB were prepared using distilled water and stored at 8°C before further use. For 15 minutes, the solution mixture was incubated at 30 °C, after which a solution of the substrate (50 µl) was added and then subjected to spectroscopic analysis. Using a double beam spectrophotometer, the sample absorbance was measured for 4 minutes at 412 nm beside the time of reaction. […] All values were taken in triplicate under the same conditions.\nEnzymatic activity percentage=V/Vmaxx100\nV is the reaction rate in the inhibitor's presence, whereas Vmax is the reaction rate in the absence of the inhibitor."}}}
{"molecule": "COc1ccc2c3c1O[C@H]1C[C@@H](O)C=C[C@@]31CCN(C)C2", "note": "[Galantamine, reference compound]", "values": [{"measurement": "retention transfer latency (RTL)", "setting": "[1]", "result": 38.33, "unit": "s"}, {"measurement": "initial transfer latency (ITL)", "setting": "[1]", "result": 47.33, "unit": "s"}, {"measurement": "spontaneous alternation", "setting": "[2]", "result": 47.56, "unit": "%"}, {"measurement": "number of lines crossed", "setting": "[3]", "result": 50.33}, {"measurement": "time spent in the central area", "setting": "[3]", "result": 13, "unit": "mint"}, {"measurement": "time spent in the peripheral area", "setting": "[3]", "result": "significantly (p<0.01) less time in the peripheral area"}, {"measurement": "inhibition at 62.5 µg/mL", "setting": "[4]", "result": 67.2, "unit": "%"}, {"measurement": "inhibition at 125 µg/mL", "setting": "[4]", "result": 72.9, "unit": "%"}, {"measurement": "inhibition at 250 µg/mL", "setting": "[4]", "result": 77.4, "unit": "%"}, {"measurement": "inhibition at 500 µg/mL", "setting": "[4]", "result": 84.4, "unit": "%"}, {"measurement": "inhibition at 1000 µg/mL", "setting": "[4]", "result": "89.5 ± 1.93", "unit": "%"}]}
{"molecule": "CC(=O)[C@H]1CC[C@H]2[C@@H]3CCC4=CC(=O)CC[C@]4(C)[C@H]3CC[C@]12C", "note": "[progesterone]", "values": [{"measurement": "retention transfer latency (RTL)", "setting": "[1]", "result": 50.33, "unit": "s"}, {"measurement": "initial transfer latency (ITL)", "setting": "[1]", "result": 56.5, "unit": "s"}, {"measurement": "spontaneous alternation", "setting": "[2]", "result": 40.001, "unit": "%"}, {"measurement": "number of lines crossed", "setting": "[3]", "result": 42}, {"measurement": "time spent in the central area", "setting": "[3]", "result": 9.66, "unit": "mint"}, {"measurement": "time spent in the peripheral area", "setting": "[3]", "result": "significant (p˂0.05) decline in time spent peripherally"}]}
